From US12077503B2, “Substituted cyclic amides and their use as herbicides” (FMC CORPORATION, priority 2015, dated 2024)

Tests used:
Format in all cases: in vivo
[1] = tested on: giant foxtail (Setaria faberii); experiment: Test A postemergence; details: Setaria faberi, post-emergence, 240 h, 125 g ai/ha, Postemergence; visual injury after approximately 10 d; 0 to 100 scale where 0 is no effect and 100 is complete control; read-out: Plant response rating, Foxtail, Giant
Procedure, shortened: (§1)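 Visual injury, scored on a 0–100 scale relative to untreated controls, was recorded about 10 d after application. Treatments were a preemergence soil spray over planted seeds or a postemergence spray on plants at the one- to two-leaf stage, 2 to 10 cm tall, all in loam soil–sand blend in the greenhouse.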

Kochia (Kochia scoparia) [2] = experiment: Test A postemergence; details: Bassia scoparia, post-emergence, 240 h, 125 g ai/ha, Postemergence; visual injury after approximately 10 d; 0 to 100 scale where 0 is no effect and 100 is complete control; read-out: Plant response rating, Kochia
Procedure, shortened: as §1

[3] = tested on: wheat (Triticum aestivum); experiment: Test A postemergence; details: Triticum aestivum, post-emergence, 240 h, 125 g ai/ha, Postemergence; visual injury after approximately 10 d; 0 to 100 scale where 0 is no effect and 100 is complete control; read-out: Plant response rating, Wheat
Procedure, shortened: as §1

[4] = tested on: barnyardgrass (Echinochloa crus-galli); experiment: Test A postemergence; details: Echinochloa crus-galli, post-emergence, 240 h, 125 g ai/ha, Postemergence; visual injury after approximately 10 d; 0 to 100 scale where 0 is no effect and 100 is complete control; read-out: Plant response rating, Barnyardgrass
Procedure, shortened: as §1

[5] = tested on: ryegrass, Italian (Italian ryegrass, Lolium multiflorum); experiment: Test A preemergence; details: Lolium multiflorum, pre-emergence, 240 h, 500 g ai/ha, preemergence; visual injury rating about 10 d after treatment, 0 to 100 scale (0 no effect, 100 complete control); read-out: Ryegrass, Italian plant response rating
Procedure, shortened: as §1

[6] = tested on: giant foxtail (Setaria faberii); experiment: Test A preemergence; details: Setaria faberi, pre-emergence, 240 h, preemergence, read-out: Foxtail, Giant plant response rating; for pest or weed control at 125 g/ha: 125 g ai/ha, 0 to 100 scale where 0 is no effect and 100 is complete control; for pest or weed control at 500 g/ha: 500 g ai/ha, visual injury rating about 10 d after treatment, 0 to 100 scale (0 no effect, 100 complete control)
Procedure, shortened: as §1

Kochia (Kochia scoparia) [7] = experiment: Test A preemergence; details: Bassia scoparia, pre-emergence, 240 h, preemergence, read-out: Kochia plant response rating; for pest or weed control at 125 g/ha: 125 g ai/ha, 0 to 100 scale where 0 is no effect and 100 is complete control; for pest or weed control at 500 g/ha: 500 g ai/ha, visual injury rating about 10 d after treatment, 0 to 100 scale (0 no effect, 100 complete control)
Procedure, shortened: as §1

[8] = tested on: pigweed (Amaranthus retroflexus); experiment: Test A preemergence; details: Amaranthus retroflexus, pre-emergence, 240 h, preemergence, read-out: Pigweed plant response rating; for pest or weed control at 125 g/ha: 125 g ai/ha, 0 to 100 scale where 0 is no effect and 100 is complete control; for pest or weed control at 500 g/ha: 500 g ai/ha, visual injury rating about 10 d after treatment, 0 to 100 scale (0 no effect, 100 complete control)
[9] = tested on: barnyardgrass (Echinochloa crus-galli); experiment: Test A preemergence; details: Echinochloa crus-galli, pre-emergence, 240 h, preemergence, read-out: Barnyardgrass plant response rating; for pest or weed control at 125 g/ha: 125 g ai/ha, 0 to 100 scale where 0 is no effect and 100 is complete control; for pest or weed control at 500 g/ha: 500 g ai/ha, visual injury rating about 10 d after treatment, 0 to 100 scale (0 no effect, 100 complete control)
Procedure, shortened: as §1

[10] = tested on: ragweed (common ragweed, Ambrosia elatior); experiment: Test A preemergence; details: Ambrosia artemisiifolia, pre-emergence, 240 h, 500 g ai/ha, preemergence; visual injury rating about 10 d after treatment, 0 to 100 scale (0 no effect, 100 complete control); read-out: Ragweed plant response rating
Procedure, shortened: as §1

rice (Oryra sativa) = experiment: Test B flooded paddy test; details: Oryza sativa, Flood, 250 g ai/ha; scale of 0 to 100 where 0 is no effect and 100 is complete control; read-out: Rice plant response rating
Procedure, shortened: (§2)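 Visual ratings (0 none to 100 complete control) are relative to untreated plants, taken 13–15 d after treatment in a greenhouse. Test material went straight into floodwater standing 3 cm above the soil, kept constant, on plants at the 2-leaf stage.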

[11] = tested on: ducksalad (Heteranthera limosa); experiment: Test B flooded paddy test; details: Heteranthera limosa, Flood, 250 g ai/ha; scale of 0 to 100 where 0 is no effect and 100 is complete control; read-out: Ducksalad plant response rating
Procedure, shortened: as §2

[12] = tested on: barnyardgrass (Echinochloa crus-galli); experiment: Test B flooded paddy test; details: Echinochloa crus-galli, Flood, 250 g ai/ha; scale of 0 to 100 where 0 is no effect and 100 is complete control; read-out: Barnyardgrass plant response rating
Procedure, shortened: as §2

[13] = tested on: sedge, umbrella (small-flower umbrella sedge, Cyperus difformis); experiment: Test B flooded paddy test; details: Cyperus difformis, Flood, 250 g ai/ha; scale of 0 to 100 where 0 is no effect and 100 is complete control; read-out: Sedge, Umbrella plant response rating
Procedure, shortened: as §2

Structure (SMILES): CN1C[C@H](c2ccc(C(F)(F)F)cc2)[C@@H](C(=O)Nc2ccc(F)cc2Br)C1=O [Compound 934]
- pest or weed control at 125 g/ha [1]: 90%
- pest or weed control at 125 g/ha (Kochia (Kochia scoparia) [2]): 20%
- plant injury at 125 g/ha [3]: 0%
- pest or weed control at 125 g/ha [4]: 60%
- pest or weed control at 500 g/ha [5]: 60%
- pest or weed control at 125 g/ha [6]: 90%
- pest or weed control at 500 g/ha [6]: 90%
- pest or weed control at 125 g/ha (Kochia (Kochia scoparia) [7]): 50%
- pest or weed control at 500 g/ha (Kochia (Kochia scoparia) [7]): 80%
- pest or weed control at 125 g/ha [8]: 0%
- pest or weed control at 500 g/ha [8]: 80%
- pest or weed control at 125 g/ha [9]: 70%
- pest or weed control at 500 g/ha [9]: 90%
- pest or weed control at 500 g/ha [10]: 30%
- pest or weed control at 250 g/ha (rice (Oryra sativa)): 0%
- pest or weed control at 250 g/ha [11]: 60%
- pest or weed control at 250 g/ha [12]: 0%
- pest or weed control at 250 g/ha [13]: 0%

Structure (SMILES): Cc1cc(F)ccc1NC(=O)[C@H]1C(=O)N(C)C[C@@H]1c1ccc(C(F)(F)F)cc1 [Compound 936]
- pest or weed control at 125 g/ha [1]: 90%
- pest or weed control at 125 g/ha (Kochia (Kochia scoparia) [2]): 20%
- plant injury at 125 g/ha [3]: 30%
- pest or weed control at 125 g/ha [4]: 60%
- pest or weed control at 500 g/ha [5]: 70%
- pest or weed control at 125 g/ha [6]: 90%
- pest or weed control at 500 g/ha [6]: 90%
- pest or weed control at 125 g/ha (Kochia (Kochia scoparia) [7]): 60%
- pest or weed control at 500 g/ha (Kochia (Kochia scoparia) [7]): 90%
- pest or weed control at 125 g/ha [8]: 20%
- pest or weed control at 500 g/ha [8]: 80%
- pest or weed control at 125 g/ha [9]: 70%
- pest or weed control at 500 g/ha [9]: 90%
- pest or weed control at 500 g/ha [10]: 50%
- pest or weed control at 250 g/ha (rice (Oryra sativa)): 0%
- pest or weed control at 250 g/ha [11]: 85%
- pest or weed control at 250 g/ha [12]: 0%
- pest or weed control at 250 g/ha [13]: 0%

Structure (SMILES): Cc1cccc(NC(=O)[C@H]2C(=O)N(C)C[C@@H]2c2ccc(C(F)(F)F)cc2)c1F [Compound 939]
- pest or weed control at 125 g/ha [1]: 90%
- pest or weed control at 125 g/ha (Kochia (Kochia scoparia) [2]): 0%
- plant injury at 125 g/ha [3]: 20%
- pest or weed control at 125 g/ha [4]: 80%
- pest or weed control at 500 g/ha [5]: 20%
- pest or weed control at 125 g/ha [6]: 90%
- pest or weed control at 500 g/ha [6]: 90%
- pest or weed control at 125 g/ha (Kochia (Kochia scoparia) [7]): 30%
- pest or weed control at 500 g/ha (Kochia (Kochia scoparia) [7]): 60%
- pest or weed control at 125 g/ha [8]: 0%
- pest or weed control at 500 g/ha [8]: 0%
- pest or weed control at 125 g/ha [9]: 90%
- pest or weed control at 500 g/ha [9]: 90%
- pest or weed control at 500 g/ha [10]: 50%
- pest or weed control at 250 g/ha (rice (Oryra sativa)): 0%
- pest or weed control at 250 g/ha [11]: 40%
- pest or weed control at 250 g/ha [12]: 0%
- pest or weed control at 250 g/ha [13]: 0%

Structure (SMILES): Cc1cccc(NC(=O)[C@H]2C(=O)N(C)C[C@@H]2c2ccc(C(F)(F)F)cc2)c1C [Compound 941]
- pest or weed control at 125 g/ha [1]: 60%
- pest or weed control at 125 g/ha (Kochia (Kochia scoparia) [2]): 0%
- plant injury at 125 g/ha [3]: 0%
- pest or weed control at 125 g/ha [4]: 50%
- pest or weed control at 500 g/ha [5]: 0%
- pest or weed control at 125 g/ha [6]: 90%
- pest or weed control at 500 g/ha [6]: 90%
- pest or weed control at 125 g/ha (Kochia (Kochia scoparia) [7]): 0%
- pest or weed control at 500 g/ha (Kochia (Kochia scoparia) [7]): 0%
- pest or weed control at 125 g/ha [8]: 0%
- pest or weed control at 500 g/ha [8]: 0%
- pest or weed control at 125 g/ha [9]: 80%
- pest or weed control at 500 g/ha [9]: 90%
- pest or weed control at 500 g/ha [10]: 30%
- pest or weed control at 250 g/ha (rice (Oryra sativa)): 0%
- pest or weed control at 250 g/ha [11]: 35%
- pest or weed control at 250 g/ha [12]: 0%
- pest or weed control at 250 g/ha [13]: 0%

Structure (SMILES): CN1C[C@H](c2ccc(C(F)(F)F)cc2)[C@@H](C(=O)Nc2ccc(F)cc2C(F)(F)F)C1=O [Compound 942]
- pest or weed control at 125 g/ha [1]: 80%
- pest or weed control at 125 g/ha (Kochia (Kochia scoparia) [2]): 30%
- plant injury at 125 g/ha [3]: 20%
- pest or weed control at 125 g/ha [4]: 60%
- pest or weed control at 500 g/ha [5]: 20%
- pest or weed control at 125 g/ha [6]: 90%
- pest or weed control at 500 g/ha [6]: 90%
- pest or weed control at 125 g/ha (Kochia (Kochia scoparia) [7]): 70%
- pest or weed control at 500 g/ha (Kochia (Kochia scoparia) [7]): 90%
- pest or weed control at 125 g/ha [8]: 80%
- pest or weed control at 500 g/ha [8]: 90%
- pest or weed control at 125 g/ha [9]: 70%
- pest or weed control at 500 g/ha [9]: 90%
- pest or weed control at 500 g/ha [10]: 50%
- pest or weed control at 250 g/ha (rice (Oryra sativa)): 0%
- pest or weed control at 250 g/ha [11]: 40%
- pest or weed control at 250 g/ha [12]: 0%
- pest or weed control at 250 g/ha [13]: 0%
